Data reported in PubChem BioAssay (NCI).
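96-well plates; 48 h exposure; 5 concentrations. Endpoints by linear interpolation between flanking doses. Not reached: highest tested concentration assigned. Here, GI50 denotes the concentration required for 50% inhibition of growth. TGI denotes the concentration required for complete inhibition of growth.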

Experiments:
Assay in all cases: NCI tumour cell line growth inhibition, 48 h
[1] = tested on: SF-295 CNS
[2] = tested on: NCI-H23 lung
[3] = tested on: MDA-MB-231 breast
[4] = tested on: ACHN renal
[5] = tested on: MALME-3M melanoma
[6] = tested on: MCF7 breast
[7] = tested on: LOX IMVI melanoma
[8] = tested on: OVCAR-4 ovarian
[9] = tested on: NCI-H460 lung
[10] = tested on: HL-60(TB) leukemia
[11] = tested on: SNB-75 CNS
[12] = tested on: MDA-MB-435
[13] = tested on: UO-31 renal
[14] = tested on: DU-145 prostate
[15] = tested on: SK-OV-3 ovarian
[16] = tested on: SF-539 CNS
[17] = tested on: SK-MEL-5 melanoma
[18] = tested on: MOLT-4 leukemia

Structure (SMILES)	TGI [1]	TGI [2]	GI50 [3]	TGI [3]	TGI [4]	TGI [5]	TGI [6]	TGI [7]	TGI [8]	TGI [9]	TGI [10]	TGI [11]	TGI [12]	TGI [13]	TGI [14]	TGI [15]	GI50 [16]	TGI [16]	TGI [17]	TGI [18]
CC(=O)CC(=O)Nn1c(-c2cccs2)nc2ccc(I)cc2c1=O	> 100 µM	> 100 µM	16.4 µM	63.7 µM	> 100 µM	> 93.2 µM	> 100 µM	> 90 µM	> 100 µM	> 100 µM	> 100 µM	> 100 µM	> 100 µM	> 91.3 µM	> 96.6 µM	> 100 µM	13.8 µM	34.4 µM	> 65.5 µM	> 100 µM
O=C1N[C@@H](c2c[nH]c3ccc(Br)cc23)C(=O)N[C@H]1c1c[nH]c2ccc(Br)cc12	25.2 µM	28.2 µM		26.3 µM	15.8 µM	28.8 µM	35.2 µM	20.9 µM	24 µM	27.8 µM	26.6 µM	9.03 µM	16.8 µM	45 µM	27.3 µM	31.1 µM		18.9 µM	17.7 µM	20.1 µM
COc1c(-c2ccc3c(c2)OCO3)oc2cc3c(c(OC)c2c1=O)OCO3	61.8 µM	53.5 µM		> 100 µM	63 µM	67.6 µM	40.6 µM	32.1 µM	70.1 µM	28 µM	4.1 µM	44.9 µM	36.2 µM	71 µM	> 100 µM	35.7 µM		34.8 µM	35.5 µM	> 100 µM
CC(C)(C)C(=O)C(C#N)C(=O)C(C)(C)C	> 100 µM	> 100 µM		> 100 µM	> 100 µM	> 100 µM	> 100 µM	> 100 µM	> 100 µM	> 100 µM	> 100 µM	> 100 µM	> 100 µM	> 100 µM	> 100 µM	> 100 µM		> 100 µM	> 100 µM	> 100 µM
COc1ccc(N=Nc2ccc3oc(=O)c(C(=O)Nc4ccc(OC)cc4)cc3c2)cc1	51.9 µM	43.8 µM		88.1 µM	56.5 µM	52.7 µM	38 µM	18.1 µM	75.3 µM	79.4 µM	30.8 µM	54.3 µM	54.8 µM	62.4 µM	53.9 µM	83.5 µM		22.8 µM	33.3 µM	34.9 µM
COC(=O)C1(C(=O)OC)CC2=C(S(=O)(=O)c3ccccc3)C[C@@H](C#N)[C@H]2C1	> 100 µM	> 100 µM		> 100 µM	> 100 µM	> 100 µM	> 100 µM	> 100 µM	> 100 µM	> 100 µM	> 100 µM	> 100 µM	> 100 µM	> 100 µM	> 100 µM	> 100 µM		> 100 µM	> 100 µM	> 100 µM
